Results from patent US11396501B2, “Heteroaryl compounds as CXCR4 inhibitors, composition and method using the same” (CGENETECH (SUZHOU, CHINA) CO., LTD., priority 2017, dated 2022).

Columns and labels:
CXCR4 [1] = biological target: T1, CXCR4 (Homo sapiens, UniProt P61073); assay: FLIPR Tetra calcium mobilization assay; assay type: cell-based; conditions: Human CD4+ T-Cells; CXCL12 added; FLIPR Calcium 4 assay kit
Procedure: FLIPR Tetra Calcium Mobilization Assay The FLIPR Tetra calcium mobilization assay was performed by HD Bioscience. Briefly, The Molecular Devices, Fluorescent Imaging Plate Reader (FLIPR) Tetra was used in this assay. Excitation was achieved through unique placement of LED's within the instrument and emission captured by a CCD camera (EMCCD camera for FI and ICCD camera for luminescence). The homogeneous FLIPR Calcium 4 assay kit from Molecular Devices was used as the fluorescence reagent. Compounds were solubilized in 100% dimethyl sulfoxide (DMSO) to a concentration of 30 mM. A 10-point, 4-fold, intermediate dilution series was created in 100% DMSO with a top concentration of 4 mM and a bottom concentration of 0.01 μM. A near assay ready, direct dilution plate ([…]) was prepared from this compound dilution plate by transferring 1 μL of each dilution of compound in 100% DMSO to a Greiner #781201 plate. In addition, each […] plate also contained positive and negative control wells to define the upper and lower limits for the assay signal. The final assay concentration range of compound was 10 μM to 0.035 nM in 0.5% DMSO. Human CD^4+ T-Cells were isolated from human whole blood and subsequently activated and expanded using a CD3/CD28 expansion kit (Life Technologies). The cells were frozen in ThermoFisher-formulated Recovery Cell Culture Freezing Medium containing 10% Dimethyl sulfoxide (DMSO) and 10% Fetal Bovine Serum (FBS) (ThermoFisher Catalog No. 10100147). When used, cells were resuspended using room temperature 1× HBSS/20 mM HEPES/0.005% P-104 assay buffer, adjusted the volume of the suspension to achieve a cell concentration of 2.5×10^6 cells/mL. 2× Calcium 4 dye (20 μL/well) were added and the mixture were centrifuged briefly ( 10 s) and stopped when it reached 1000 rpm. The plates were allowed to equilibrate before compounds and CXCL12 were added to the plates. The raw data were analyzed using Abase. The percent (%) effect at each concentration of compound was calculated by Abase and was based on and relative to the amount of calcium produced in the positive and negative control wells contained within each assay plate. The concentrations and % effect values for tested compounds were plotted by Abase and the concentration of compound required for 50% effect (IC50) was determined with a four-parameter logistic dose response equation. FIGS. 3 and 4 summarize the results of Compounds A78 and A83 in the calcium mobilization assay.

CXCR4 [2] = biological target: T1, CXCR4; assay: HPB-ALL CXCR4 competitive binding assay (12G5 binding assay); set-up: HPB-ALL cells were maintained in RPMI-1640 (Gibico) supplemented with 10% FBS (Hyclone); endogenous in cells; host or cells: HPB-ALL cells; conditions: HPB-ALL cells; competition with APC-conjugated anti-human CXCR4 clone 12G5 at its EC80; 4° C. for 3 h; FACS
Procedure: HPB-ALL CXCR4 Competitive Binding Assay
HPB-ALL cells were maintained in RPMI-1640 (Gibico) supplemented with 10% FBS (Hyclone). APC-conjugated anti-human CXCR4 was from Sungene. EC80 was first determined for 12G5 binding to CXCR4. Then the compounds for testing were added into 96-well plates serially diluted at a ratio of 1:3. Cells were washed once with ice-cold assay buffer (DPBS+2% HI-FBS) and then re-suspended in the same buffer at a final concentration of 1×10^6/mL. Cell suspension was then added into the wells and with the addition of APC-conjugated anti-human CXCR4 clone 12G5 at its EC80 determined. The mix of cell, compounds and APC-conjugated anti-human CXCR4 were incubated at 4° C. for 3 h before addition of 100 μL of 4% PFA. Cells were then washed once and resuspended in assay buffer and examined by FACS. The percent (%) effect at each concentration of compound was calculated and relative to the amount of calcium produced in the positive and negative control wells contained within each assay plate. The concentrations and % effect values for tested compounds were plotted and the concentration of compound required for 50% effect (IC50) was determined. Tables 2 summarize results of the CXCR4 competitive binding assay for selected compounds disclosed in the present disclosure. FIGS. 1-2 depict the IC50 curves of compounds A42 and A43.

T1 sequence (P61073 whole entry): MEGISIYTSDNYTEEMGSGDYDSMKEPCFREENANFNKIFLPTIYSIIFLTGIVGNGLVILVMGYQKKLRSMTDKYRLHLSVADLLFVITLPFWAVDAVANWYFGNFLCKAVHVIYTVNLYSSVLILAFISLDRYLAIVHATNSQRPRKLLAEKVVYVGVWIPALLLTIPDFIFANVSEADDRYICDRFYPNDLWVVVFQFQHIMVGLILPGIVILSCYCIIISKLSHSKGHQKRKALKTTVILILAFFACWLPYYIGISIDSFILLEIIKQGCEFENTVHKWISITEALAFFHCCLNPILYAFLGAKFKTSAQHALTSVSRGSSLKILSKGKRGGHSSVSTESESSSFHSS

IC50 (CXCR4 [1]) [nM] | IC50 (CXCR4 [2]) [nM] | Compound
0.021 | 9.8 | Cc1nc(CN(C)[C@H]2CCCc3cccnc32)cc(N2CCN(C)CC2)n1 [Compound A42]
0.09 | 15 | Cc1nc(CN(C)[C@@H](C)c2ccccn2)cc(N2CCN(C)CC2)n1 [Compound A75, (S)-N-methyl-N-((2-methyl-6-(4-methylpiperazin-1-yl)pyrimidin-4-yl)methyl)-1-(pyridin-2-yl)ethan-1-amine]
1.2 | 18 | Cc1nc(CN(C)C2=C(F)CCc3cccnc32)cc(N2CCN(C)CC2)n1 [Compound D1, 7-fluoro-N-methyl-N-((2-methyl-6-(4-methylpiperazin-1-yl)pyrimidin-4-yl)methyl)-5,6-dihydroquinolin-8-amine]
0.24 | 65 | Cc1nc(CN(C)c2cccc3cccnc23)cc(N2CCN(C)CC2)n1 [Compound D2, N-methyl-N-((2-methyl-6-(4-methylpiperazin-1-yl)pyrimidin-4-yl)methyl)quinolin-8-amine]
0.3 | 57 | Cc1nc(CN(C)c2c(C)ccc3cccnc23)cc(N2CCN(C)CC2)n1 [Compound D14]
3.1 | 675 | Cc1nc(CN(C)c2cc(F)c(F)c3cccnc23)cc(N2CCN(C)CC2)n1 [Compound D20]

More lines, now with the values behind:

Compound | IC50 (CXCR4 [1]) [nM] | IC50 (CXCR4 [2]) [nM]
CN1CCN(c2cc(CN(C)C3CCCc4cccnc43)ncn2)CC1 (stereo not shown) [Compound A1, N-methyl-N-((6-(4-methylpiperazin-1-yl)pyrimidin-4-yl)methyl)-5,6,7,8-tetrahydroquinolin-8-amine] | 4.5 | 45
CN1CCCN(c2cc(CN(C)C3CCCc4cccnc43)ncn2)CC1 (stereo not shown) [Compound A22] | 3.4 | 32
Cc1nc(CN(C)[C@H]2CCCc3cccnc32)c(C)c(N2CCN(C)CC2)n1 [Compound A61] | 0.024 | 8.8
Cc1nc(CN(C)c2cccc3cccnc23)cc(N2CCN(C)[C@H](C)C2)n1 [Compound D4] | 0.14 | 55
CCN(Cc1cc(N2CCN(C)CC2)nc(C)n1)c1cccc2cccnc12 [Compound D25] | 16 | 151
Cc1nc(CN(CCCCN)c2cccc3cccnc23)cc(N2CCN(C)CC2)n1 [Compound D28] | 0.21 | 338
Cc1nc(CN(CCCC(=O)O)c2cccc3cccnc23)cc(N2CCN(C)CC2)n1 [Compound D30, 4-(((2-methyl-6-(4-methylpiperazin-1-yl)pyrimidin-4-yl)methyl)(quinolin-8-yl)amino)butanoic acid] | 9.3 | 3820
Cc1nc(CN(C)c2cccc3cccnc23)c(C#N)c(N2CCN(C)CC2)n1 [Compound D36] | 3.6 | 1170
